Results: patent US20250109141A1, “BRD4 PROTEIN DEGRADER COMPOUND, AND PREPARATION METHOD AND USE THEREOF” (Miracure Biotechnology Limited, priority 2023, published 2025)
Like-named read-outs stand apart in the source and are kept apart here.

Experiments:
LNCaP = test: Cell proliferation assay (CellTiterGlo, 72 h), LNCaP; type: cell-based; details: LNCap cells, 72 h compound treatment, read-out: LNCap ATP average IC50
Method: The cell line used was 22RV1 or LNCaP, and the medium was RPMI-1640 containing 10% FBS and antibiotics. All incubations were performed at 37° C. in a humidified carbon dioxide incubator.
On day 1, cells were digested with 0.25% trypsin (containing EDTA) and collected by centrifugation.
(§1) The cells were seeded in a 96-well plate (white wall/transparent bottom) at 5000 cells/well and cultured overnight.
(§2) On day 2, A stock solution of the compound at a concentration of 10 mM was subjected to an 8-fold serial dilution to obtain 8 concentration points. 2 μL of the compound solution at each concentration point was added to 98 μL of fresh medium, and the mixture was mixed homogeneously. Then, 5 μL of the compound solution diluted in the medium at each concentration point was added to 100 μL of overnight medium containing the cells, and 2 replicates were set for each concentration. The mixture was cultured for 72 h.
(§3) After 72 h of compound treatment, the plate was equilibrated to room temperature, 100 μL of CellTiterGlo (Promega) was added. The mixture was mixed homogeneously for 2 min, left to stand at room temperature for 10 min, and then read for luminescence values on a SpectraMax M5 microplate reader to evaluate cell viability. The positive control was 1% Tween-20 and the negative control was 0.1% DMSO. IC50 was generated by 4-parameter non-linear regression fitting in GraphPad Prism.

22RV1 = test: Cell proliferation assay (CellTiterGlo, 72 h), 22RV1; type: cell-based; details: read-out: 22Rv1 ATP average IC50
Method: All incubations were performed at 37° C. in a humidified carbon dioxide incubator.
as §1, §2, §3

[1] = Homo sapiens, 22Rv1 cells, 72 h compound treatment, CellTiterGlo

Compound	IC50 (LNCaP; Homo sapiens) [nM]	IC50 (22RV1; Homo sapiens, 22Rv1, 72 h) [nM]	IC50 (22RV1; [1]) [nM]	other results
Cc1sc2c(c1C)C(c1ccc(C#CCN)cc1)=N[C@@H](CC(N)=O)c1nnc(C)n1-2 [Compound 9001]	200 to 500	> 500		
Cc1sc2c(c1C)C(c1ccc(C#CC(N)=O)cc1)=N[C@@H](CC(=O)OC(C)(C)C)c1nnc(C)n1-2 [Compound 9002]	< 50		< 50	
Cc1sc2c(c1C)C(c1ccc(-c3cc(=O)[nH]o3)cc1)=N[C@@H](CC(=O)OC(C)(C)C)c1nnc(C)n1-2 [Compound 9003]	50 to 200		> 500	
Cc1sc2c(c1C)C(c1ccc(C#CCN)cc1)=N[C@@H](CC(=O)NO)c1nnc(C)n1-2 [Compound 9010]	> 500	> 500		
Cc1sc2c(c1C)C(c1ccc(C#CCN)cc1)=N[C@@H](CC(=O)Nc1ccc(O)cc1)c1nnc(C)n1-2 [Compound 9012]	50 to 200	200 to 500		
CCNC(=O)C[C@@H]1N=C(c2ccc(C#CCN)cc2)c2c(sc(C)c2C)-n2c(C)nnc21 [Compound 9013]	< 50	200 to 500		
Cc1sc2c(c1C)C(c1ccc(C#CC(=O)NN)cc1)=N[C@@H](CC(=O)OC(C)(C)C)c1nnc(C)n1-2 [Compound 9017]	< 50		200 to 500	
Cc1sc2c(c1C)C(c1ccc(C#CCN)cc1)=N[C@@H](CC(=O)NN)c1nnc(C)n1-2 [Compound 9018]	> 500	> 500		
COC(=O)C#Cc1ccc(C2=N[C@@H](CC(=O)OC(C)(C)C)c3nnc(C)n3-c3sc(C)c(C)c32)cc1 [Compound 9019]	50 to 200		200 to 500	
Cc1sc2c(c1C)C(c1ccc(C#CC(=O)O)cc1)=N[C@@H](CC(=O)OC(C)(C)C)c1nnc(C)n1-2 [Compound 9020]	> 500		> 500	
Cc1sc2c(c1C)C(c1ccc(C#CCN)cc1)=N[C@@H](CC(=O)O)c1nnc(C)n1-2 [Compound 9021]	50 to 200	> 500		
Cc1sc2c(c1C)C(c1ccc(C#CC(=O)N(C)N)cc1)=N[C@@H](CC(=O)OC(C)(C)C)c1nnc(C)n1-2 [Compound 9023]	> 500		> 500	
Cc1sc2c(c1C)C(c1ccc(C#CCN)cc1)=N[C@@H](CC(=O)N(C)O)c1nnc(C)n1-2 [Compound 9025]	50 to 200	200 to 500		
Cc1sc2c(c1C)C(c1ccc(C#CCN)cc1)=N[C@@H](CC(=O)N(C)N)c1nnc(C)n1-2 [Compound 9026]	> 500	> 500		
C#CCNC(=O)C[C@@H]1N=C(c2ccc(C#CCN)cc2)c2c(sc(C)c2C)-n2c(C)nnc21 [Compound 9038]	200 to 500	50 to 200		
Cc1sc2c(c1C)C(c1ccc(C#CCON)cc1)=N[C@@H](CC(=O)OC(C)(C)C)c1nnc(C)n1-2 [Compound 9041]	< 50		50 to 200	
CC(=O)NNCC#Cc1ccc(C2=N[C@@H](CC(=O)OC(C)(C)C)c3nnc(C)n3-c3sc(C)c(C)c32)cc1 [Compound 9046]	50 to 200		< 50	
CC(=O)NN(C)CC#Cc1ccc(C2=N[C@@H](CC(=O)OC(C)(C)C)c3nnc(C)n3-c3sc(C)c(C)c32)cc1 [Compound 9047]	> 500		< 50	
CCNC(=O)C[C@@H]1N=C(c2ccc(C#CCN)cc2)c2cc(OC)ccc2-n2c(C)nnc21 [Compound 9051]	> 500	> 500		
Cc1sc2c(c1C)C(c1ccc(-c3cc(=O)n(C)o3)cc1)=N[C@@H](CC(=O)OC(C)(C)C)c1nnc(C)n1-2 [Compound 9053]	50 to 200		50 to 200	
CONC(=O)C#Cc1ccc(C2=N[C@@H](CC(=O)OC(C)(C)C)c3nnc(C)n3-c3sc(C)c(C)c32)cc1 [Compound 9055]	< 50		< 50	

Compound	IC50 (LNCaP; Homo sapiens) [nM]	IC50 (22RV1; Homo sapiens, 22Rv1, 72 h) [nM]	IC50 (22RV1; [1]) [nM]	other results
Cc1sc2c(c1C)C(c1ccc(-c3cc(CN)nn3C)cc1)=N[C@@H](CC(=O)OC(C)(C)C)c1nnc(C)n1-2 [Compound 9058]	200 to 500		> 500	
Cc1sc2c(c1C)C(c1ccc(-c3nc(CN)cs3)cc1)=N[C@@H](CC(=O)OC(C)(C)C)c1nnc(C)n1-2 [Compound 9059]	< 50		50 to 200	
Cc1sc2c(c1C)C(c1ccc(-c3ccoc3CN)cc1)=N[C@@H](CC(=O)OC(C)(C)C)c1nnc(C)n1-2 [Compound 9060]	50 to 200		200 to 500	
Cc1sc2c(c1C)C(c1ccc(N3CC(CN)C3)cc1)=N[C@@H](CC(=O)OC(C)(C)C)c1nnc(C)n1-2 [Compound 9061]	200 to 500		50 to 200	
Cc1sc2c(c1C)C(c1ccc(-c3ccc(CN)n3C)cc1)=N[C@@H](CC(=O)OC(C)(C)C)c1nnc(C)n1-2 [Compound 9062]	50 to 200		50 to 200	
COc1ccc2c(c1)C(c1ccc(C#CCN)cc1)=N[C@@H](CC(=O)N(C)CCO)c1nnc(C)n1-2 [Compound 9063]	> 500	> 500		
CONCC#Cc1ccc(C2=N[C@@H](CC(=O)OC(C)(C)C)c3nnc(C)n3-c3sc(C)c(C)c32)cc1 [Compound 9064]	< 50		< 50	
Cc1sc2c(c1C)C(c1ccc(N3CC4(CC(N)C4)C3)cc1)=N[C@@H](CC(=O)OC(C)(C)C)c1nnc(C)n1-2 [Compound 9066]	< 50		200 to 500	
Cc1sc2c(c1C)C(c1ccc(-c3ccc(CN)s3)cc1)=N[C@@H](CC(=O)OC(C)(C)C)c1nnc(C)n1-2 [Compound 9067]	50 to 200		50 to 200	
Cc1sc2c(c1C)C(c1ccc(-c3ncc(CN)s3)cc1)=N[C@@H](CC(=O)OC(C)(C)C)c1nnc(C)n1-2 [Compound 9068]	50 to 200		50 to 200	
CCOC(=O)C[C@@H]1N=C(c2ccc(C#CCN)cc2)c2cc(OC)ccc2-n2c(C)nnc21 [Compound 9069]	< 50	< 50		
COc1ccc2c(c1)C(c1ccc(C#CCN)cc1)=N[C@@H](CC(=O)O)c1nnc(C)n1-2 [Compound 9070]	> 500	> 500		
Cc1sc2c(c1C)C(c1ccc(-c3csc(CN)n3)cc1)=NC(CC(=O)OC(C)(C)C)c1nnc(C)n1-2 (centres unmarked) [Compound 9072]	< 50		50 to 200	
Cc1sc2c(c1C)C(c1ccc(-c3cnc(CN)s3)cc1)=NC(CC(=O)OC(C)(C)C)c1nnc(C)n1-2 (centres unmarked) [Compound 9073]	< 50		50 to 200	
Cc1sc2c(c1C)C(c1ccc(-c3nc(CN)cs3)cc1)=N[C@@H](CC(=O)OC(C)(C)C)c1nnc(C)n1-2 [Compound 9074]				IC50 (LNCaP): < 50 nM; IC50 (22RV1; 22Rv1 cells, 72 h compound treatment, CellTiterGlo): 50 to 200 nM
Cc1sc2c(c1C)C(c1ccc(C#CCN)cc1)=N[C@@H](CC(=O)N(C)CCO)c1nnc(C)n1-2 [Compound 9075]	< 50	200 to 500		
Cc1sc2c(c1C)C(c1ccc(C#CCN)cc1)=N[C@@H](CC(=O)NCCO)c1nnc(C)n1-2 [Compound 9076]	200 to 500	> 500		
Cc1sc2c(c1C)C(c1ccc(/C=C/CON)cc1)=N[C@@H](CC(=O)OC(C)(C)C)c1nnc(C)n1-2 [Compound 9083]			< 50	
COc1ccc2c(c1)C(c1ccc(/C=C/CON)cc1)=N[C@@H](CC(=O)OC(C)(C)C)c1nnc(C)n1-2 [Compound 9092]		> 500		
Cc1sc2c(c1C)C(c1ccc(N3CC(CO)C3)cc1)=N[C@@H](CC(=O)OC(C)(C)C)c1nnc(C)n1-2 [Compound 9105]			200 to 500	
Cc1sc2c(c1C)C(c1ccc(C#CCN)cc1)=N[C@@H](CC13OCC(C)(CO1)CO3)c1nnc(C)n1-2 [Compound 9113]				IC50 (22RV1): 200 to 500 nM
